The target in test [1] is T1, cAR1 (Dictyostelium discoideum, UniProt P13773).
T1 sequence (P13773 1-392): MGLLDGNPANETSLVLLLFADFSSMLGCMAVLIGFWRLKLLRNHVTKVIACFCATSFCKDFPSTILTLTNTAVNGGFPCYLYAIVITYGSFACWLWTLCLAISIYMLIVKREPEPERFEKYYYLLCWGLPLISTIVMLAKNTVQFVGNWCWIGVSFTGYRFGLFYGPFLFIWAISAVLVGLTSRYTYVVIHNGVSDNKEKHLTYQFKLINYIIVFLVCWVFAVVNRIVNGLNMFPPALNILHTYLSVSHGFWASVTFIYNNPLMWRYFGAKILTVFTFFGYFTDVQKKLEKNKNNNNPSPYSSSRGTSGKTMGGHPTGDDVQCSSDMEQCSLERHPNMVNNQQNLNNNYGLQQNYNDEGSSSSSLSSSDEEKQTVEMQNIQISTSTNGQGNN
As to the kind of experiment: cell-based.

Test [2] deals with 5.5 h-differentiated wild-type cells. As to the kind of experiment: DIC and fluorescence confocal imaging of drug-treated cells. The format is cell-based, Dictyostelium. Particulars: 5 μM LatA or 50 μM Benomyl for 15 min; Lifeact-GFP / tubulin-GFP reporters.
For test [3], the system named is cAMP-induced Gα2βγ subunit dissociation. Put plainly: BRET^2 assay after drug pretreatment. Particulars: for effect on interaction of Gα2 with βγ in resting cells (basal BRET^2 signal): 5 μM LatA or 50 μM Benomyl for 15 min. Format: cell-based, Dictyostelium. (In general: Bioluminescence resonance energy transfer reports proximity on the nanometre scale.)
The target of test [4] is T1, cAR1.
A further test concerns cAMP binding sites. The conditions noted are these: 10 mM caffeine, whole cells; cited from earlier work.

For orientation: EC50 means the concentration that produces a half-maximal response. A higher EC50 goes with lower potency in that assay.

`Nc1ncnc2c1ncn2[C@H]1C[C@H](O)[C@@H](COP(=O)(O)O)O1` [2’-dcAMP, 2’-deoxyadenosine-5’-monophosphate] gave a half-maximal effective concentration (EC50) at cAR1 [1] of approximately 17 nM.
On to `CCCCNC(=O)n1c(NC(=O)OC)nc2ccccc21` [Benomyl], for which, in test [2], the “effect on cell morphology” value was “loss of morphological cell polarity”. In addition, the “effect on interaction of Gα2 with βγ in resting cells (basal BRET^2 signal)” value in test [3] is “did not affect”.
The corresponding values for `C/C1=C/C(=O)O[C@@H]2C[C@@H](CC[C@H](C)/C=C\C=C\CC1)O[C@@](O)([C@@H]1CSC(=O)N1)C2` [LatA, Latrunculin A] are “loss of morphological cell polarity” and “did not affect”.
`Nc1ncnc2c1ncn2[C@@H]1O[C@@H]2COP(=O)(O)O[C@H]2[C@H]1O` [cAMP, cyclic adenosine monophosphate]: the “time to steady state of BRET^2 loss after stimulation” value at cAR1 [4] (10 μM cAMP) was “approximately 20 s”. Besides, the “decrease in total BRET^2 signal” value on cAR1 [4] (10 μM cAMP, Gα2GFP^2/Rluc2Gβ/gα2^− cells) is recorded as 30–40. Also, at cAR1 [4] (10 μM cAMP, Gα2GFP^2/Rluc2Gβ/gα2^− cells, 63 mBU before stimulation), the “total BRET^2 signal after stimulation” value amounted to 36 mBU. Further, on cAR1 [4] (10 μM cAMP, carA^− and carA^−carC^− cells, undifferentiated and 5.5 h-differentiated), the “G protein subunit dissociation in cells lacking cAR1” value is “fails to induce considerable G protein subunit dissociation”. For the same molecule, the “cAMP concentration inducing the full G protein dissociation response” value at cAR1 [4] (Gα2GFP^2/Rluc2Gβ/gα2^− cells) was determined as 500 nM. Further, the “G protein subunit dissociation in cells lacking only cAR3 (extent and potency)” value on cAR1 [4] (carC^− cells) is listed as “comparable to that in wild-type cells”.
In the case of `Cn1c(=O)c2c(ncn2C)n(C)c1=O` [caffeine], in the test on cAMP binding sites, the “effect on cAMP binding sites” value is given as “conversion of most binding sites to the low affinity conformation”. The “effect of caffeine on potency of cAMP-induced Gα2βγ subunit dissociation” value in test [3] (5 mM caffeine, in parallel to untreated cells) is on record as “significantly increased potency”.

Values taken from PMC6453136 (Cellular signalling, 2018).
